In patent publication US20130317055A1, “NEURONAL NICOTINIC AGONIST AND METHODS OF USE” (ABBVIE INC., priority 2012, published 2013):

Test system: clinically stable subjects with schizophrenia
Assay: Clinical Study A (Phase 2a, placebo-controlled): MATRICS Consensus Cognitive Battery (MCCB)
Format: in vivo, human
Details: for MCCB Reasoning and Problem Solving: Difference from Placebo LS Mean (SE) of Difference / MCCB Reasoning and Problem Solving: LS Mean (SE) of Change from Baseline / MCCB Reasoning and Problem Solving: Observed Mean (SD) of change from baseline / MCCB Attention/Vigilance: Difference from Placebo LS Mean (SE) of Difference / MCCB Attention/Vigilance: LS Mean (SE) of Change from Baseline / MCCB Attention/Vigilance: Observed Mean (SD) of change from baseline / MCCB Social Cognition: Difference from Placebo LS Mean (SE) of Difference / MCCB Social Cognition: LS Mean (SE) of Change from Baseline / MCCB Social Cognition: Observed Mean (SD) of change from baseline / MCCB Speed of Processing: Difference from Placebo LS Mean (SE) of Difference / MCCB Speed of Processing: LS Mean (SE) of Change from Baseline / MCCB Speed of Processing: Observed Mean (SD) of change from baseline / MCCB Verbal Learning: Difference from Placebo LS Mean (SE) of Difference / MCCB Verbal Learning: LS Mean (SE) of Change from Baseline / MCCB Verbal Learning: Observed Mean (SD) of change from baseline / MCCB Visual Learning: Difference from Placebo LS Mean (SE) of Difference / MCCB Visual Learning: LS Mean (SE) of Change from Baseline / MCCB Visual Learning: Observed Mean (SD) of change from baseline / MCCB Working Memory: Difference from Placebo LS Mean (SE) of Difference / MCCB Working Memory: LS Mean (SE) of Change from Baseline / MCCB Working Memory: Observed Mean (SD) of change from baseline: ITT
Source text: A Phase 2a proof-of-concept (POC) study in clinically stable subjects with schizophrenia who were clinically stable and received stable doses of atypical antipsychotic therapy. The study was a Phase 2, multi-center, randomized, double-blind, placebo-controlled, parallel group study designed to evaluate the safety and efficacy of doses of (4s)-4-(5-phenyl-1,3,4-thiadiazol-2-yloxy)-1-azatricyclo[3.3.1.1^3,7]decane (Compound A) in clinically stable male and female subjects (ages 20 to 55, inclusive) with a Diagnostic and Statistical Manual of Mental Disorders Fourth Edition, Text Revision (DSM-IV-TR) diagnosis of schizophrenia. Psychiatric diagnoses were confirmed using the Mini-International Neuropsychiatric Interview (MINI) version 6.0.0. The criteria for clinical stability was determined by a combination of retrospective data (over the 4 months prior to the start of Screening, which will be supported by clinical records, patient, identified responsible contact person, and physician interviews), and prospective data assessed during the Prospective Stabilization Period of 28 to 42 days duration.
The study was a Phase 2, multi-center, randomized, double-blind, placebo-controlled, parallel group study designed to evaluate the safety and efficacy of doses of (4s)-4-(5-phenyl-1,3,4-thiadiazol-2-yloxy)-1-azatrieyclo[3.3.1.1^3,7]decane, which is also recognized as Compound A, in treating cognitive deficits in subjects with schizophrenia who were clinically stable and receiving one or two atypical antipsychotic medications. Study drug was administered orally.
The study consisted of a screening period of at least 28 and up to 42 days, a 84-day outpatient treatment period, a 14-day post-treatment period, and a post-treatment follow-up period. The screening period consisted of three visits: Screening Visit 1, Screening Visit 2, and Day −1. Upon completion of Day −1 procedures, eligible subjects were randomized through an Interactive Voice Response/Interactive Web-Based (IVR/IWB) system. Subjects were randomized in an equal ratio to one of three treatment groups (placebo, 10 mg Compound A, or 25 mg Compound A).
Subjects were randomized in a 1:1:1 ratio with placebo, 10 mg QD Compound A, of 25 mg Compound A. Each subject was instructed to take study drug once-daily in the morning for 12 weeks. Each daily dose was preferably taken with food. The subject and investigator were blinded to the treatment assignment throughout the study. The treatment assignments for the study subjects are shown below in Table 1.
The primary endpoint was the MCCB composite score, and the primary endpoint analysis was the change on the MCCB composite score from baseline to endpoint versus placebo. Other secondary measures included the MCCB domains, the NSA-16, the CANTAB cognition battery (measured at different time points from the MCCB), and the UPSA-2. The Positive and Negative Syndrome Scale (PANSS) was included to document stability in schizophrenia symptomatology.
The MCCB was developed by a consortium of academic, industry, the Food and Drug Administration (FDA) and National Institute of Mental Health ([…]) members called Measurement and Treatment Research to Improve Cognition in Schizophrenia (MATRICS). The battery was established in a multiple phase process that involved experts identifying cognitive tests in the literature that had shown deficits in schizophrenia, use of factor analysis to identify key domains of cognitive deficits in schizophrenia, and then empirically identifying the best tests for each domain based on reliability, validity and feasibility for use in clinical trials. The FDA has endorsed the MCCB as an appropriate outcome measure for Phase 3 CDS trials. […]

c1ccc(-c2nnc(O[C@@H]3C4CC5C[C@H]3C[N@](C5)C4)s2)cc1 [Compound A, (4s)-4-(5-phenyl-1,3,4-thiadiazol-2-yloxy)-1-azatricyclo[3.3.1.1^3,7]decane]
MCCB Reasoning and Problem Solving: Difference from Placebo LS Mean (SE) of Difference (10 mg QD, Change to Week 2): 1.24 (1.18) T-score | MCCB Reasoning and Problem Solving: LS Mean (SE) of Change from Baseline (10 mg QD, Change to Week 2): 1.99 (0.84) T-score | MCCB Reasoning and Problem Solving: Observed Mean (SD) of change from baseline (10 mg QD, Change to Week 2): 1.70 (6.03) T-score | MCCB Attention/Vigilance: Difference from Placebo LS Mean (SE) of Difference (10 mg QD, Change to Week 6): 1.29 (1.35) T-score | MCCB Attention/Vigilance: LS Mean (SE) of Change from Baseline (10 mg QD, Change to Week 6): 0.49 (0.98) T-score | MCCB Attention/Vigilance: Observed Mean (SD) of change from baseline (10 mg QD, Change to Week 6): 0.83 (7.62) T-score | MCCB Reasoning and Problem Solving: Difference from Placebo LS Mean (SE) of Difference (10 mg QD, Change to Week 6): 0.53 (1.03) T-score | MCCB Reasoning and Problem Solving: LS Mean (SE) of Change from Baseline (10 mg QD, Change to Week 6): 0.49 (0.75) T-score | MCCB Reasoning and Problem Solving: Observed Mean (SD) of change from baseline (10 mg QD, Change to Week 6): 0.08 (5.57) T-score | MCCB Social Cognition: Difference from Placebo LS Mean (SE) of Difference (10 mg QD, Change to Week 6): −0.46 (1.34) T-score | MCCB Social Cognition: LS Mean (SE) of Change from Baseline (10 mg QD, Change to Week 6): 1.04 (0.97) T-score | MCCB Social Cognition: Observed Mean (SD) of change from baseline (10 mg QD, Change to Week 6): 1.14 (7.87) T-score | MCCB Speed of Processing: Difference from Placebo LS Mean (SE) of Difference (10 mg QD, Change to Week 6): 0.74 (1.04) T-score | MCCB Speed of Processing: LS Mean (SE) of Change from Baseline (10 mg QD, Change to Week 6): 1.13 (0.74) T-score | MCCB Speed of Processing: Observed Mean (SD) of change from baseline (10 mg QD, Change to Week 6): 1.00 (5.49) T-score | MCCB Verbal Learning: Difference from Placebo LS Mean (SE) of Difference (10 mg QD, Change to Week 6): 0.24 (1.12) T-score | MCCB Verbal Learning: LS Mean (SE) of Change from Baseline (10 mg QD, Change to Week 6): 0.31 (0.82) T-score | MCCB Verbal Learning: Observed Mean (SD) of change from baseline (10 mg QD, Change to Week 6): 0.68 (7.99) T-score | MCCB Visual Learning: Difference from Placebo LS Mean (SE) of Difference (10 mg QD, Change to Week 6): 1.74 (1.57) T-score | MCCB Visual Learning: LS Mean (SE) of Change from Baseline (10 mg QD, Change to Week 6): 1.59 (1.13) T-score | MCCB Visual Learning: Observed Mean (SD) of change from baseline (10 mg QD, Change to Week 6): 1.35 (9.36) T-score | MCCB Working Memory: Difference from Placebo LS Mean (SE) of Difference (10 mg QD, Change to Week 6): 0.86 (1.03) T-score | MCCB Working Memory: LS Mean (SE) of Change from Baseline (10 mg QD, Change to Week 6): 0.35 (0.75) T-score | MCCB Working Memory: Observed Mean (SD) of change from baseline (10 mg QD, Change to Week 6): 0.27 (5.15) T-score | MCCB Attention/Vigilance: Difference from Placebo LS Mean (SE) of Difference (10 mg QD, Change to Week 12): 2.63 (1.49) T-score | MCCB Attention/Vigilance: LS Mean (SE) of Change from Baseline (10 mg QD, Change to Week 12): 0.64 (1.06) T-score | MCCB Attention/Vigilance: Observed Mean (SD) of change from baseline (10 mg QD, Change to Week 12): 1.15 (8.46) T-score | MCCB Social Cognition: Difference from Placebo LS Mean (SE) of Difference (10 mg QD, Change to Week 12): 0.40 (1.52) T-score | MCCB Social Cognition: LS Mean (SE) of Change from Baseline (10 mg QD, Change to Week 12): 0.99 (1.08) T-score | MCCB Social Cognition: Observed Mean (SD) of change from baseline (10 mg QD, Change to Week 12): 1.38 (6.51) T-score | MCCB Speed of Processing: Difference from Placebo LS Mean (SE) of Difference (10 mg QD, Change to Week 12): 1.08 (1.20) T-score | MCCB Speed of Processing: LS Mean (SE) of Change from Baseline (10 mg QD, Change to Week 12): 2.36 (0.85) T-score | MCCB Speed of Processing: Observed Mean (SD) of change from baseline (10 mg QD, Change to Week 12): 2.33 (6.05) T-score | MCCB Verbal Learning: Difference from Placebo LS Mean (SE) of Difference (10 mg QD, Change to Week 12): 0.61 (1.10) T-score | MCCB Verbal Learning: LS Mean (SE) of Change from Baseline (10 mg QD, Change to Week 12): 1.08 (0.79) T-score | MCCB Verbal Learning: Observed Mean (SD) of change from baseline (10 mg QD, Change to Week 12): 1.28 (7.06) T-score | MCCB Visual Learning: Difference from Placebo LS Mean (SE) of Difference (10 mg QD, Change to Week 12): 0.73 (1.59) T-score | MCCB Visual Learning: LS Mean (SE) of Change from Baseline (10 mg QD, Change to Week 12): 0.29 (1.12) T-score | MCCB Visual Learning: Observed Mean (SD) of change from baseline (10 mg QD, Change to Week 12): 0.05 (8.06) T-score | MCCB Working Memory: Difference from Placebo LS Mean (SE) of Difference (10 mg QD, Change to Week 12): 0.80 (1.18) T-score | MCCB Working Memory: LS Mean (SE) of Change from Baseline (10 mg QD, Change to Week 12): 0.92 (0.84) T-score | MCCB Working Memory: Observed Mean (SD) of change from baseline (10 mg QD, Change to Week 12): 0.83 (7.04) T-score | MCCB domains with dose response relationship (10 mg and 25 mg, exception reasoning): 6 of the 7 domains | MCCB composite score: LS mean change from baseline (10 mg, baseline to Week 6, MNIRIVI analysis, placebo LS mean +0.49): +1.25 | MCCB Reasoning and Problem Solving: Difference from Placebo LS Mean (SE) of Difference (25 mg QD, Change to Week 2): 1.20 (1.24) T-score
